From patent US20020037829A1, “Use of DPPIV inhibitors as diuretic and anti-hypertensive agents” (priority 2000, published 2002)

Key:
Assay type in all cases: cell-based, opossum
DPPIV = experiment: Colorimetric DPPIV enzyme assay with glycylproline p-nitroanilide tosylate as substrate in OKP cells; details: 1 mM Diprotin A
Description: (§1) The concentration dependence for Diprotin A inhibition of DPPIV activity was first evaluated. […] Diprotin A inhibited EIPA-sensitive Na/H exchange activity by 36.7±5.3%. To test the specificity of this inhibition, activity of another brush border transport process, Cl^−-formate exchange, measured as Cl^− gradient-stimulated, DIDS-sensitive uptake of 14C-formate was assayed.

NHE3 = experiment: 22Na uptake assay of EIPA-sensitive Na/H exchange (NHE3) activity in OKP cells; details: 1 mM Diprotin A, 20 min pre-incubation in NH3/NH4+ buffer pH 7.4
Description: As an initial approach to examine the physiological role of the association of DPPIV with NHE3, Diprotin A, a specific competitive inhibitor that binds to the active site of DPPIV, affects NHE3 activity in OKP cells was studied. OKP is a line of opossum proximal tubule cells that has transport properties very similar to the native proximal tubule and is therefore commonly used as an in vitro model for the mammalian proximal tubule.
as §1

Cl-formate exchange = experiment: Cl- gradient-stimulated, DIDS-sensitive 14C-formate uptake (Cl-formate exchange) in OKP cells; details: Diprotin A
Description: as §1

Substance: Ile-Pro-Ile [Diprotin A]
- inhibition of DPPIV activity in OKP cells (DPPIV): completely inhibited
- inhibition of EIPA-sensitive Na/H exchange activity (NHE3): 36.7±5.3%
- effect on Cl-formate exchange activity (Cl-formate exchange): no significant effect
